Measurements from patent US6218378A, “Anti-tumor agents comprising pyridyl-substituted metal-diphosphine complex” (priority 1994, dated 2001).

Legend:
PC9 = assay: activity against cisplatin sensitive lung tumour PC9; type: cell-based, human; conditions: very preliminary data
Description: In Table 1, JAM and CI-80-13S are ovarian tumours, HeLa is a cervical tumour and MM96 is a melanoma In Table 2, all the tumours are ovarian tumours. […] In this regard, PC9 is a lung tumour and its derivation is discussed in Hong et al., 1993, Cancer Research 53 3302-3307 and Bungo et al., 1990, Cancer Research 50 2549-2553.

human tumour cell lines = assay: selectivity of cytotoxicity over all cell lines evaluated (Tables 1 and 2); type: cell-based
Description: The origins of the human melanoma cell line MM96 has been described in Whitehead et al., 1973, Pigment Cell 1 383-389. The cell line JAM is described in Ward et al., 1987, Cancer Res. 47 2662-2667. The origin of the ovarian tumour line CI-80-13S has been described in Bertoncello et al., 1985, Aust. J. Exp. Biol. Med. Sci. 63 241-243. The origin of the cervical carcinoma cell line HeLa has been described in Maynard et al., 1986, Cancer Res. 46 5009-5093. The subclone HeLa-S1a was derived by stably transfecting HeLa with PAI-2 cDNA described in Schleuning et al., 1987, Mol. Cell. Biol. 7 4564-4567 in the sense orientation under the control of the cyto-megalovirus (CMV) promoter. The stably infected subclone was isolated following G418 selection and expression of the PAI-2 transgene characterised by immunoblot analysis and quantitated by ELISA. All of these cell lines have been used before for carrying out cell survival assays referred to in FIGS. 1-4. Cells were cultured at 37° in 5% CO2 /air in Roswell Park Memorial Institute medium 1640 containing 5% foetal calf serum, 100 μg/ml streptomycin, 100 IU/ml penicillin, 1 mM pyruvate, 50 μM nicotinamide and 3 mM HEPES.
Cells were seeded in microtitre plates (lowest number for fastest growing cells: 1000 HeLa, 2000 MM96, […] CI-80-13S cells per 6 mm well in 100 μl), normally but not necessarily allowed to attach overnight, then 5 dilutions of the drug were added to duplicate wells. After an overnight incubation to equilibrate the pH, the lids were quickly taped around the edge to prevent evaporation. The plates were incubated for 5-7 days, until the controls were nearly confluent. Cell growth/morphology was scored at each dose visually (inverted microscope). The medium was then replaced by 50 μl fresh medium containing 2 u/Ci/ml [methyl-3H]-thymidine (5 Ci/mmol; Radiochemical Centre, Amersham, Bucks., U.K.) and incubated for 2-4 hr. The cells were washed with PBS (0.1 M NaCl, 50 mM phosphate, pH 7.2), detached with 100 μl of PBS containing 0.2 mg/ml trypsin and 10 mM EDTA, and washed onto a glass fibre GF/a filter mat with water using a cell harvester. Later, wells were checked under the microscope to ensure complete detachment and washout. Radioactivity was determined in an LKB Beta Plate counter and the results plotted as log % control cpm versus dose. The ID50 (dose required to give 50% survival) was interpolated from this survival curve.
(§1) The sensitive CH1 cell line was established from a patient with drug-sensitive disease and its resistant variant (CH1-cisR) was generated by prolonged in vitro exposure to cisplatin during which it acquired more efficient DNA repair as described in Kelland et al., 1992, Cancer Research 52 3857-3864. The sensitive 41M cell line was also established from a patient with a sensitive tumor and its resistant variant (41M-cisR) was generated in the same way but acquired decreased uptake across the cell membrane (Kelland et al., 1992, supra). The intrinsically-resistant SKOV-3 ovarian carcinoma cell line has high glutathione levels as described in Mistry et al., 1991, Brit. J. Cancer 64 215-220 and reduced levels of bi-functional cisplatin-DNA lesions as described in McKeage et al., 1994, Brit. J. Cancer 69 1-7. The characteristics of the cell line pairs CH1/CH1 cisR, 41M/41McisR and 41M/SKOV3 are described in Table 3.
The cytotoxicity assay used sulforhodamine B which stains the basic amino acids. Cells (5000 or 2500 for SKOV-3) were seeded into 96 well microtitre plates (Linbro, Flow Laboratories Inc., USA) in 0.1 ml of medium. After an overnight incubation, the metal phosphine compounds were dissolved in 0.9% NaCl or ethanol and diluted with medium, were added at concentrations ranging from 0.005 to 50 μM to quadruplicate wells. After 96 hrs incubation, the medium was removed and cells were fixed in 0.2 ml of cold 10% (w/v) trichloroacetic acid (May & Baker Ltd., Dagenham, England) for 30 mins at 4° C. The plates were washed five times with tap water. […]

[1] = system: 41M, 41M-cisR, SKOV-3, CH1, CH1-cisR; assay: growth inhibition of cisplatin-sensitive and -resistant ovarian cancer cell lines (Table 2, FIG. 5); type: cell-based, human
Description: as §1
The cytotoxicity assay used sulforhodamine B which stains the basic amino acids. Cells (5000 or 2500 for SKOV-3) were seeded into 96 well microtitre plates (Linbro, Flow Laboratories Inc., USA) in 0.1 ml of medium. After an overnight incubation, the metal phosphine compounds were dissolved in 0.9% NaCl or ethanol and diluted with medium, were added at concentrations ranging from 0.005 to 50 μM to quadruplicate wells. After 96 hrs incubation, the medium was removed and cells were fixed in 0.2 ml of cold 10% (w/v) trichloroacetic acid (May & Baker Ltd., Dagenham, England) for 30 mins at 4° C. The plates were washed five times with tap water. Then 0.1 ml of 0.4% (w/v) sulforhodamine B (Sigma Chemical Co., St. Louis, USA) dissolved in 1% acetic acid (Ajax Chemicals, Australia) was added to the wells and left to stand at room temperature for 15 mins. The plates were then washed five times with 1% acetic acid and left to dry overnight. The next morning, 0.1 ml of 10 mM Tris buffer (Sigma Chemical Co., St. Louis, USA) was then added to each plate to solubilise the dye. Absorbance was read at a wavelength of 570 nm using a 96 well plate reader Dynatech MR 5000 plate reader. Absorbance of treatment cells was expressed as a percentage of positive (drug-free) controls. The results were plotted as percentage growth versus drug concentration. The drug concentration resulting in a 50% growth inhibition was termed the IC50. The passage numbers used for the cytotoxicity assay from each cell line were, CH1 passages 50-58, CH1 cis-R passages 77-83, 41M passages 50-63, 41M cisR 81-92 and SKOV-3 passages 106-128.

## [Cl-].c1cc([P+]2(c3ccncc3)CC[P+](c3ccncc3)(c3ccncc3)[Au-3]23[P+](c2ccncc2)(c2ccncc2)CC[P+]3(c2ccncc2)c2ccncc2)ccn1 [[Au(d4pype)2]Cl]
PC9; PC9 lung tumour
  IC50: 25 µM
PC9; cisplatin sensitive lung tumour
  activity against PC9: modest activity
Human tumour cell lines
  number of cell lines against which cytotoxic: cytotoxic to only four of the nine cell-lines tested
Human tumour cell lines; Tables 1 and 2
  degree of selectivity: the greatest selectivity
[1]
  selectivity and cytotoxicity in ovarian cancer cell-lines (FIG. 5): exhibits the greatest selectivity killing only the CH1/CH1 cisR pair
